Laboratory results taken from publication PMC7732128, “Regulation of gene transcription by thyroid hormone receptor β agonists in clinical development for the treatment of non-alcoholic steatohepatitis (NASH)” (PLoS ONE, 2020).
Like-named read-outs stand apart in the source and are kept apart here.

Legend:
[1] = test system: THR (ANGPTL4, CPT1A, DIO1 RNA in Huh-7 cells); assay: Differential gene expression assay in Huh-7 cells; format: cell-based, human; conditions: for fold less potent than T3: CPT1A transcription in Huh-7; for EC50: Homo sapiens
Protocol: Hepatoma-derived Huh-7 cells (JCRB Cell Bank, JCRB0403) were obtained directly from the repository, which performed cell line authentication via isozyme analysis and comprehensively tested for microbial contamination, viral contamination, and cross culture contamination. Cells were routinely cultured in DMEM (Corning, 10-013-CM) supplemented with 10% FBS and 1% P/S at 37°C and 5% CO2 until 80–90% confluency. Cells were then detached with 0.05% trypsin (Corning, 25-052-CV), resuspended in TH-free medium (DMEM supplemented with 10% TH-depleted FBS and 1% P/S), and seeded into collagen-coated, 96-well microplates (Corning, 354407) at 5.0 x 10^4 cells/well. After 24 hrs, the culture medium was replaced with treatment media. Cells were treated for 24 hrs. TH-depletion of the FBS via resin treatment was accomplished as previously described. All treatment media were made by mixing test compounds, serially diluted in DMSO, with TH-free medium (0.1% final DMSO concentration).
After 24 hrs in treatment media, both Huh-7 cells and PHH were processed with the TaqMan Fast Advanced Cells-to-Ct Kit (Invitrogen, A35378), according to the manufacturer’s protocol. Briefly, the treatment media was removed and the cells were washed with 50 μL cold 1X phosphate-buffered saline (Corning, 21-040-CM). Fifty μL lysis buffer containing DNase I was added to each well and the plate was incubated on a rotor at RT for 5 mins. Five μL stop solution was then added to each well and after another 2 mins incubation on a rotor at RT, the cell lysates were used for reverse transcription. The resulting cDNA was diluted 1:2 with nuclease-free, distilled water (Invitrogen, 10977015). Gene expression was measured using TaqMan Fast Advanced Master Mix (Applied Biosystems, 4444964) and the following TaqMan Gene Expression assays (Applied Biosystems, 4331182): 18S (Hs99999901_s1), ACTB (Hs01060665_g1), ANGPTL4 (Hs01101123_g1), CPT1A (Hs00912671_m1), DIO1 (Hs00174944_m1), TFG (Hs02832013_g1), THRA (Hs00268470_m1), and THRB (Hs00230861_m1). ACTB and TFG served as control housekeeping genes for Huh-7 assays and 18S and ACTB for PHH assays. Ten μL reactions were run on the qTOWER³ 84 (Analytik Jena). Relative quantification (RQ) of gene expression was calculated via the 2^−ΔΔCt method and dose-response curves were fitted by non-linear regression with variable slope. Statistical analysis was performed in GraphPad Prism 8.
We aimed to develop an in vitro, cell-based assay that is not only amenable to high throughput screening of compounds, but that can also more reliably recapitulate in vivo processes. Because activated THR may function as a transcription factor, we compared the action of THR agonists in a human hepatocyte-derived cell line and in primary human hepatocytes (PHH) by quantifying transcriptional changes resulting from compound treatment (Fig 2A). Cells were cultured in TH-depleted media for 24 hrs and then treated with compounds for 24 hrs. The RNA levels of THR target genes were then measured via RT-qPCR.

THR (THRSP RNA in PHH) = assay: Differential gene expression assay in primary human hepatocytes (PHH); format: cell-based; conditions: Hepatocyte, RT-qPCR, 24 hrs treatment, read-out: PHH EC50 Mean ± SEM
[2] = Huh-7, CPT1A RNA, RT-qPCR, 24 hrs treatment, read-out: Huh-7 EC50 Mean ± SEM

Compound	fold less potent than T3 [1]	EC50 [1, 2] [nM]	EC50 (THR (THRSP RNA in PHH)) [nM]	times weaker than VK2809A ([1]; Huh-7 assay) [times]	EC50 ([1]; Huh-7, 24 hrs, n = 2 (Fig 2C), read-out: mean EC50, ANGPTL4) [nM]	EC50 ([1]; Huh-7, 24 hrs, n = 2 (Fig 2C), read-out: mean EC50, CPT1A) [nM]	EC50 ([1]; Huh-7, 24 hrs, n = 2 (Fig 2C), read-out: mean EC50, DIO1) [nM]
Cc1cc(OCP(=O)(O)O)cc(C)c1Cc1ccc(O)c(C(C)C)c1 [VK2809A]	approximately 30 fold	8.3 ± 2.2	14.8 ± 10.7	–	–	–	–
Cc1cc(OCP2(=O)OCC[C@@H](c3cccc(Cl)c3)O2)cc(C)c1Cc1ccc(O)c(C(C)C)c1 (stereo partly drawn) [VK2809]	~2,000 fold	589 ± 120	18.7 ± 8.9	71	–	–	–
